Marks after values point to notes of the source that are not given here.
Columns and labels:
[1] = system: panel of 12 human tumour cell lines; assay: Monolayer proliferation assay, mean across the cell lines tested; type: cell-based; conditions: for IC50: Homo sapiens
Protocol: (§1) In vitro evaluation of compounds for anticancer activity in a panel of 12 human tumour cell lines in a monolayer proliferation assay was carried out at the Oncotest Testing Facility, Institute for Experimental Oncology, Oncotest GmbH, Freiburg.
(§2) The Oncotest cell lines were established from human tumor xenografts as described by Roth et al. 1999. The origin of the donor xenografts was described by Fiebig et al. 1999. Other cell lines were either obtained from the NCI (H460, SF-268, OVCAR-3, DU145, MDA-MB-231, MDA-MB-468) or purchased from DSMZ, Braunschweig, Germany (LNCAP).
(§3) All cell lines, unless otherwise specified, are grown at 37° C. in a humidified atmosphere (95% air, 5% CO2) in a ‘ready-mix’ medium containing RPMI 1640 medium, 10% fetal calf serum, and 0.1 mg/mL gentamicin (PAA, Cölbe, Germany).
(§4) A modified propidium iodide assay was used to assess the effects of the test compound(s) on the growth of twelve human tumor cell lines (Dengler et al., (1995)).
(§5) Briefly, cells were harvested from exponential phase cultures by trypsinization, counted and plated in 96 well flat-bottomed microtitre plates at a cell density dependent on the cell line (5-10,000 viable cells/well). After 24 h recovery to allow the cells to resume exponential growth, 0.01 mL of culture medium (6 control wells per plate) or culture medium containing macbecin are added to the wells. Each concentration is plated in triplicate. […] Following 4 days of continuous exposure, cell culture medium with or without test compound is replaced by 0.2 mL of an aqueous propidium iodide (PI) solution (7 mg/L). To measure the proportion of living cells, cells are permeabilized by freezing the plates. After thawing the plates, fluorescence is measured using the Cytofluor 4000 microplate reader (excitation 530 nm, emission 620 nm), giving a direct relationship to the total number of viable cells.
(§6) Growth inhibition is expressed as treated/control×100 (% T/C). For active compounds, IC50 & IC70 values were estimated by plotting compound concentration versus cell viability.

[2] = system: H460; assay: Monolayer proliferation assay (modified propidium iodide); type: cell-based, human; conditions: mean of duplicate experiments
Protocol: as §1, §2, §3, §4, §5, §6

[3] = system: 394NL; assay: as above; type: cell-based, human; conditions: mean of duplicate experiments
Protocol: as §1, §2, §3, §4, §5, §6

[4] = system: MDA468; assay: as above; type: cell-based, human; conditions: mean of duplicate experiments
Protocol: as §1, §2, §3, §4, §5, §6

[5] = system: DU145; assay: as above; type: cell-based, human; conditions: mean of duplicate experiments
Protocol: as §1, §2, §3, §4, §5, §6

[6] = system: 251L; assay: as above; type: cell-based, human; conditions: mean of duplicate experiments
Protocol: as §1, §2, §3, §4, §5, §6

[7] = system: SF268; assay: as above; type: cell-based, human; conditions: mean of duplicate experiments
Protocol: as §1, §2, §3, §4, §5, §6

[8] = system: A498; assay: as above; type: cell-based, human; conditions: mean of duplicate experiments
Protocol: as §1, §2, §3, §4, §5, §6

[9] = system: MDA231; assay: as above; type: cell-based, human; conditions: mean of duplicate experiments
Protocol: as §1, §2, §3, §4, §5, §6

[10] = system: OVCAR3; assay: as above; type: cell-based, human; conditions: mean of duplicate experiments
Protocol: as §1, §2, §3, §4, §5, §6

[11] = system: 1138L; assay: as above; type: cell-based, human; conditions: mean of duplicate experiments
Protocol: as §1, §2, §3, §4, §5, §6

[12] = system: LNCAP; assay: as above; type: cell-based, human; conditions: mean of duplicate experiments
Protocol: as §1, §2, §3, §4, §5, §6

[13] = system: MCF7; assay: as above; type: cell-based, human; conditions: mean of duplicate experiments
Protocol: as §1, §2, §3, §4, §5, §6

[14] = target: FKBP12 (Homo sapiens, UniProt P62942); assay: FKBP-12 in vitro binding assay (GdnHCl denaturation curve shift)
Sequence of FKBP12 (P62942 whole entry): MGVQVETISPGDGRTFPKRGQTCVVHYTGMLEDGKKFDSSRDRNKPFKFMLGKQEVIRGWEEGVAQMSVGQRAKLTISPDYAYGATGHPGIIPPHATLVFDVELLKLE
Source text: FKBP12 reversibly unfolds in the chemical denaturant guandinium hydrochloride (GdnHCl) and the unfolding can be monitored by the change in the intrinsic fluorescence of the protein (Main et al, 1998). Ligands which specifically bind and stabilise the native state of FKBP12 shift the denaturation curve such that the protein unfolds at higher concentrations of chemical denaturant (Main et al, 1999). From the difference in stability, the ligand-binding constant can be determined using equation 1.
[formula] where ΔGapp is the apparent difference in free energy of unfolding between free and ligand-bound forms, ΔGD-N^H^2^O is the free energy of unfolding in water of free protein, [L] the concentration of ligand and Kd the dissociation constant for the protein-ligand complex (Meiering et al, 1992). The free energy of unfolding can be related to the midpoint of the unfolding transition using the following equation: ΔGD-N^H^2^O=mD-N[D]50% (2) where mD-N is a constant for a given protein and given denaturant and which is proportional to the change in degree of exposure of residues on unfolding (Tanford 1968 and Tanford 1970), and [D]50% is the concentration of denaturant corresponding to the midpoint of unfolding. […] Under conditions where [L]>Kd, then, ΔΔGD-N, can be related to the relative Kds of the two compounds through equation 4: […]

[15] = mean across the 12 cell lines tested
[16] = mean based on the 9 cell lines for which data was available

Row | IC50 [1, 15] [µM] | Structure (SMILES) | Mean IC70 [1, 15] [µM] | Cell Growth (Test/Control (%) at drug concentration) ([2]; H460, 1 μM) [%] | Cell Growth (Test/Control (%) at drug concentration) ([2]; H460, 10 μM) [%] | Cell Growth (Test/Control (%) at drug concentration) ([3]; 1 μM) [%] | Cell Growth (Test/Control (%) at drug concentration) ([3]; 10 μM) [%] | Cell Growth (Test/Control (%) at drug concentration) ([5]; DU145, 1 μM) [%] | Cell Growth (Test/Control (%) at drug concentration) ([5]; DU145, 10 μM) [%] | Cell Growth (Test/Control (%) at drug concentration) ([6]; 1 μM) [%] | Cell Growth (Test/Control (%) at drug concentration) ([6]; 10 μM) [%] | Cell Growth (Test/Control (%) at drug concentration) ([7]; SF268, 1 μM) [%] | Cell Growth (Test/Control (%) at drug concentration) ([7]; SF268, 10 μM) [%] | Cell Growth (Test/Control (%) at drug concentration) ([10]; OVCAR3, 1 μM) [%] | Cell Growth (Test/Control (%) at drug concentration) ([10]; OVCAR3, 10 μM) [%] | Cell Growth (Test/Control (%) at drug concentration) ([11]; 1 μM) [%] | Cell Growth (Test/Control (%) at drug concentration) ([11]; 10 μM) [%] | Cell Growth (Test/Control (%) at drug concentration) ([12]; 1 μM) [%] | Cell Growth (Test/Control (%) at drug concentration) ([12]; 10 μM) [%] | Cell Growth (Test/Control (%) at drug concentration) ([13]; MCF7, 1 μM) [%] | Cell Growth (Test/Control (%) at drug concentration) ([13]; MCF7, 10 μM) [%] | also measured
1 | 3.5 | CO[C@H]1C[C@@H]2CC[C@@H](C)[C@@](O)(O2)C(=O)C(=O)N2CCCC[C@H]2C(=O)O[C@H]([C@H](C)C[C@@H]2CC[C@@H](O)[C@H](OC)C2)CC(=O)[C@H](C)/C=C(\C)[C@@H](O)[C@@H](OC)C(=O)[C@H](C)C[C@H](C)/C=C/C=C/C=C/1C [Rapamycin, reference compound] | 9.1 | 67 | 66 | 45 | 44 | 50.5 | 54 | 75.5 | 40 | 53.5 | 46 | 69 | 69.5 | 42 | 21.5 | 61 | 34 | 68.5 | 26.5 | Cell Growth (Test/Control (%) at drug concentration) ([4]; MDA468, 1 μM): 56.5%; Cell Growth (Test/Control (%) at drug concentration) ([4]; MDA468, 10 μM): 32%; Cell Growth (Test/Control (%) at drug concentration) ([8]; A498, 1 μM): 58.5%; Cell Growth (Test/Control (%) at drug concentration) ([8]; A498, 10 μM): 48.5%; Cell Growth (Test/Control (%) at drug concentration) ([9]; MDA231, 1 μM): 67%; Cell Growth (Test/Control (%) at drug concentration) ([9]; MDA231, 10 μM): 63.5%
2 |  | COC1CC2CCC(C)C(O)(O2)C(=O)C(=O)N2CCCCC2C(=O)OC(C(C)CC2CCC(OCCO)CC2)CC(=O)C(C)C=C(C)C(O)C(OC)C(=O)C(C)CC(C)C=CC=CC=C1C (centres unmarked) [39-desmethoxy-40-O-(2-hydroxy)ethyl rapamycin] |  | 76 | 25 | 55 | 6 | 56 | 7 | 90 | 31 | 63 | 7 | 85 | 9 | 59 | 4 | 49 | 18 | 77 | 10 | IC50 [1, 16]: 2.2 µM; Mean IC70 [1, 16]: 5.513* microM; Kd [14]: 0.0037 µM
3 | 2 | COC1CC2CCC(C)C(O)(O2)C(=O)C(=O)N2CCCCC2C(=O)OC(C(C)CC2CCC(OC(=O)C(C)(CO)CO)CC2)CC(=O)C(C)C=C(C)C(O)C(OC)C(=O)C(C)CC(C)C=CC=CC=C1C (centres unmarked) [39-desmethoxy-40-O-[2,2-bis(hydroxymethyl)propionyl]rapamycin] | 4.5 | 66 | 12 | 46 | 13 | 62.5 | 13.5 | 85.5 | 13 | 62.5 | 12 | 73.5 | 39 | 50 | 7.5 | 48.5 | 20.5 | 67 | 9 | Kd [14]: 0.0011 µM; Cell Growth (Test/Control (%) at drug concentration) ([4]; MDA468, 1 μM): 66%; Cell Growth (Test/Control (%) at drug concentration) ([4]; MDA468, 10 μM): 9%; Cell Growth (Test/Control (%) at drug concentration) ([8]; A498, 1 μM): 66%; Cell Growth (Test/Control (%) at drug concentration) ([8]; A498, 10 μM): 19.5%; Cell Growth (Test/Control (%) at drug concentration) ([9]; MDA231, 1 μM): 70.5%; Cell Growth (Test/Control (%) at drug concentration) ([9]; MDA231, 10 μM): 13.5%

From patent US7648996B2 (Biotica Technology Limited, priority 2005, dated 2010)
